Reference: ChEMBL document CHEMBL1201862, “PubChem BioAssay data set” (2004)
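How tested: cells in 96-well plates exposed to compound for 48 hours at five concentrations. Here, GI50 denotes the concentration required for 50% inhibition of growth.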 The source made the active and inactive calls. Cut-off read from the data, not from the text of the source: active = GI50 up to about 1.1 µM and inactive = higher.

Columns and labels:
Experiment in all cases: NCI-60 cell line screen, 48 h
[1] = system: HCC 2998
[2] = system: SF-295
[3] = system: EKVX
[4] = system: RXF 393
[5] = system: SK-MEL-2
[6] = system: A498
[7] = system: OVCAR-5
[8] = system: MDA-MB-231
[9] = system: HT-29
[10] = system: SK-MEL-28
[11] = system: T47D
[12] = system: IGROV-1
[13] = system: BT-549
[14] = system: 786-0
[15] = system: SK-MEL-5
[16] = system: MOLT-4
[17] = system: HCT-116
[18] = system: UACC-257
[19] = system: NCI-H460
[20] = system: LXFL 529

SMILES	GI50 [1]	GI50 [2]	GI50 [3]	GI50 [4]	GI50 [5]	GI50 [6]	GI50 [7]	GI50 [8]	GI50 [9]	GI50 [10]	GI50 [11]	GI50 [12]	GI50 [13]	GI50 [14]	GI50 [15]	GI50 [16]	GI50 [17]	GI50 [18]	GI50 [19]	GI50 [20]
COC(=O)c1ccc(C)cc1C1CN=NC12Cc1cc(C)ccc1C2=O (stereo not drawn)	23.8 µM (inactive)	7.28 µM (inactive)	23.4 µM (inactive)	13.8 µM (inactive)	8.22 µM (inactive)	12.1 µM (inactive)	30 µM (inactive)	14 µM (inactive)	3.32 µM (inactive)	23.2 µM (inactive)	20.8 µM (inactive)	8.85 µM (inactive)	15.3 µM (inactive)	21.3 µM (inactive)	8.28 µM (inactive)	10.3 µM (inactive)	7.64 µM (inactive)	17.7 µM (inactive)	27.5 µM (inactive)	–
CC1=CC(c2ccccc2)n2c(nc3cc4ccccc4cc32)N1 (stereo not drawn)	> 100 µM (inactive)	> 100 µM (inactive)	> 100 µM (inactive)	> 100 µM (inactive)	> 100 µM (inactive)	> 100 µM (inactive)	> 100 µM (inactive)	> 100 µM (inactive)	> 100 µM (inactive)	> 100 µM (inactive)	> 100 µM (inactive)	> 100 µM (inactive)	> 100 µM (inactive)	> 100 µM (inactive)	> 100 µM (inactive)	> 100 µM (inactive)	> 100 µM (inactive)	> 100 µM (inactive)	> 100 µM (inactive)	–
CC(C)=CC(=O)c1[nH]c2ccccc2c1CC(=O)NCCc1cncn1C	34.6 µM (inactive)	> 100 µM (inactive)	25.8 µM (inactive)	29.6 µM (inactive)	> 100 µM (inactive)	30 µM (inactive)	> 100 µM (inactive)	84.3 µM (inactive)	35.7 µM (inactive)	> 100 µM (inactive)	34.6 µM (inactive)	47.4 µM (inactive)	56.9 µM (inactive)	98.9 µM (inactive)	94.8 µM (inactive)	> 100 µM (inactive)	67.9 µM (inactive)	52.6 µM (inactive)	52.6 µM (inactive)	–
COC(OC)C1OC(CO)C(n2ccc(N)nc2=O)C1O (stereo not drawn)	> 100 µM (inactive)	> 100 µM (inactive)	> 100 µM (inactive)	> 100 µM (inactive)	> 100 µM (inactive)	> 100 µM (inactive)	> 100 µM (inactive)	> 100 µM (inactive)	> 100 µM (inactive)	> 100 µM (inactive)	> 100 µM (inactive)	> 100 µM (inactive)	> 100 µM (inactive)	> 100 µM (inactive)	> 100 µM (inactive)	> 100 µM (inactive)	> 100 µM (inactive)	> 100 µM (inactive)	> 100 µM (inactive)	–
COP1(=O)NCc2ncccc2O1 (stereo not drawn)	> 100 µM (inactive)	> 100 µM (inactive)	> 100 µM (inactive)	> 100 µM (inactive)	> 100 µM (inactive)	> 100 µM (inactive)	> 100 µM (inactive)	> 100 µM (inactive)	> 100 µM (inactive)	> 100 µM (inactive)	> 100 µM (inactive)	> 100 µM (inactive)	> 100 µM (inactive)	> 100 µM (inactive)	> 100 µM (inactive)	> 100 µM (inactive)	> 100 µM (inactive)	> 100 µM (inactive)	> 100 µM (inactive)	–
O=C(NCCNCCO)N/N=C/c1ccccc1	–	> 100 µM (inactive)	–	> 100 µM (inactive)	> 100 µM (inactive)	–	–	–	> 100 µM (inactive)	> 100 µM (inactive)	–	> 100 µM (inactive)	–	> 100 µM (inactive)	> 100 µM (inactive)	> 100 µM (inactive)	> 100 µM (inactive)	> 100 µM (inactive)	> 100 µM (inactive)	> 100 µM (inactive)
C[C@H]1CCC/C=C/[C@@H]2C[C@H](OC(=O)CN(C)C)C[C@H]2[C@H](O)/C=C/C(=O)O1	0.0612 µM (active)	0.165 µM (active)	0.188 µM (active)	0.0383 µM (active)	0.153 µM (active)	0.083 µM (active)	0.102 µM (active)	0.0152 µM (active)	0.105 µM (active)	0.138 µM (active)	0.329 µM (active)	0.57 µM (active)	0.232 µM (active)	0.0462 µM (active)	0.0395 µM (active)	0.187 µM (active)	0.242 µM (active)	0.109 µM (active)	0.365 µM (active)	–
C/C(=N/NC(=S)N(Cc1ccccn1)Cc1ccccn1)c1cnccn1	2.69 µM (inactive)	0.374 µM (active)	0.189 µM (active)	2.52 µM (inactive)	3.41 µM (inactive)	9.84 µM (inactive)	1.26 µM (inactive)	0.646 µM (active)	0.0303 µM (active)	0.721 µM (active)	0.231 µM (active)	0.288 µM (active)	0.646 µM (active)	0.393 µM (active)	0.432 µM (active)	0.0948 µM (active)	0.33 µM (active)	0.47 µM (active)	0.601 µM (active)	–
Cc1cc(-c2nc3ccc(F)cc3s2)ccc1NC(=O)[C@H](C)N	0.428 µM (active)	9.71 µM (inactive)	8.38 µM (inactive)	7.91 µM (inactive)	12.4 µM (inactive)	9.02 µM (inactive)	4.56 µM (inactive)	10.4 µM (inactive)	2.56 µM (inactive)	15.4 µM (inactive)	0.0559 µM (active)	2 µM (inactive)	13.7 µM (inactive)	4.66 µM (inactive)	12.9 µM (inactive)	2 µM (inactive)	3.28 µM (inactive)	5.04 µM (inactive)	2.14 µM (inactive)	–
CC1(C)CC(=O)C2=C(C1)C(c1ccccc1Cl)C1C(=O)CC(C)(C)CC1(O)O2 (stereo not drawn)	> 100 µM (inactive)	> 31.6 µM (inactive)	> 100 µM (inactive)	> 100 µM (inactive)	> 100 µM (inactive)	> 100 µM (inactive)	> 100 µM (inactive)	> 100 µM (inactive)	> 100 µM (inactive)	> 100 µM (inactive)	> 100 µM (inactive)	> 100 µM (inactive)	> 100 µM (inactive)	> 100 µM (inactive)	64.1 µM (inactive)	74.5 µM (inactive)	26.9 µM (inactive)	> 49.9 µM (inactive)	> 100 µM (inactive)	–
CO[C@H]1C[C@H](O[C@H]2CC[C@]3(C=O)[C@H]4CC[C@]5(C)[C@@H](C6=CC(=O)OC6)CC[C@]5(O)[C@@H]4CC[C@]3(O)C2)O[C@H](C)[C@H]1O[C@@H]1O[C@H](CO[C@@H]2O[C@H](CO)[C@@H](O)[C@H](O)[C@H]2O)[C@@H](O)[C@H](O)[C@H]1O	0.158 µM (active)	0.0395 µM (active)	0.0205 µM (active)	0.0251 µM (active)	0.235 µM (active)	0.0891 µM (active)	0.0671 µM (active)	0.355 µM (active)	0.0442 µM (active)	0.349 µM (active)	0.0527 µM (active)	0.0259 µM (active)	0.039 µM (active)	0.0272 µM (active)	0.037 µM (active)	0.0215 µM (active)	0.0239 µM (active)	0.239 µM (active)	< 0.0132 µM (active)	–
